Experiment [1] relates to Nicotiana tabacum. Put plainly: Inhibition of colored carotenoid formation in transgenic Nicotiana tabacum (tobacco) ET4-208. In kind it is functional, organism-based. As to conditions: read-out: I50.
In experiment [2] the test system is Nicotiana tabacum. Put plainly: Inhibition of colored carotenoid formation in Nicotiana tabacum (tobacco). In kind it is functional, organism-based. As to conditions: read-out: I50.
In experiment [3] the test system is Pantoea ananatis. Description: Resistance factor, ratio of I50 for Pantoea ananatis NFZ42 phytoene desaturase mutant to I50 for wild-type Erwinia uredovora phytoene desaturase by cellular assay.
Experiment [4] has as its system Pantoea ananatis. Put plainly: Resistance factor, ratio of I50 for Pantoea ananatis NFZ20 phytoene desaturase mutant to I50 for wild-type Erwinia uredovora phytoene desaturase by cellular assay.
Experiment [5] has as its system Pantoea ananatis. Put plainly: Resistance factor, ratio of I50 for Pantoea ananatis NFZ4 phytoene desaturase mutant to I50 for wild-type Erwinia uredovora phytoene desaturase by cellular assay.
Experiment [6] has as its system Pantoea ananatis. Put plainly: Resistance factor, ratio of I50 for Pantoea ananatis NFZ42 phytoene desaturase mutant to I50 for wild-type Erwinia uredovora phytoene desaturase by cell-free assay.
In experiment [7] the test system is Pantoea ananatis. Put plainly: Resistance factor, ratio of I50 for Pantoea ananatis NFZ20 phytoene desaturase mutant to I50 for wild-type Erwinia uredovora phytoene desaturase by cell-free assay.
Experiment [8] concerns Pantoea ananatis. Description: Resistance factor, ratio of I50 for Pantoea ananatis NFZ4 phytoene desaturase mutant to I50 for wild-type Erwinia uredovora phytoene desaturase by cell-free assay.

pIC50: −log10 of the molar value. Some results are limits rather than exact numbers.

For `CCC(COc1cccc(C(F)(F)F)c1)OC(=O)NCCc1ccccc1` (configuration not stated), the pIC50 with Nicotiana tabacum [1] is less than 4.00; in the experiment with Nicotiana tabacum [2], 5.89.

Consider `O=C(Nc1ccc(F)cc1F)c1cccnc1Oc1cccc(C(F)(F)F)c1` [DIFLUFENICAN], for which the pIC50 is less than 4.00 in the experiment on Nicotiana tabacum [1] and 7.42 in the experiment on Nicotiana tabacum [2].

Regarding `CNC1=C(c2cccc(C(F)(F)F)c2)C(=O)C(c2ccccc2)O1` (configuration not stated) [FLURTAMONE], the pIC50 is less than 4.00 in the experiment on Nicotiana tabacum [1] and 7.33 with Nicotiana tabacum [2].

As for `CNc1cnn(-c2cccc(C(F)(F)F)c2)c(=O)c1Cl` [NORFLURAZONE], the Ratio with Pantoea ananatis [3] came out at 40; in the experiment with Pantoea ananatis [4], 20; with Pantoea ananatis [5], 24; with Pantoea ananatis [6] it was 23; in the experiment on Pantoea ananatis [7], 12; in the experiment on Pantoea ananatis [8], 15. The pIC50 is less than 4.00 with Nicotiana tabacum [1] and 6.48 with Nicotiana tabacum [2].

For `CC1(C)CC(=O)C(C(=O)c2ccc(Cl)cc2[N+](=O)[O-])C(=O)C1`, the pIC50 in the experiment on Nicotiana tabacum [1] was 7.32; in the experiment with Nicotiana tabacum [2], 7.38.

For the molecule `O=c1c(-c2ccccc2)c[nH]cc1-c1cccc(C(F)(F)F)c1` [FLURIDONE], the Ratio was 0.5 with Pantoea ananatis [3]; 8 with Pantoea ananatis [4]; 4 with Pantoea ananatis [5]; 1 with Pantoea ananatis [6]; 8 in the experiment on Pantoea ananatis [7].

In the case of `CCOC(=O)C1=C(c2ccccc2)OC(CC)C(C)C1=O` (configuration not stated), the pIC50 is less than 4.00 with Nicotiana tabacum [1] and 6.13 with Nicotiana tabacum [2].

As to `C=C(Cl)COc1cc(C)nc(NC(C)C)n1`, the pIC50 in the experiment with Nicotiana tabacum [1] was less than 4.00; with Nicotiana tabacum [2], 5.35.

For `Nc1nc[nH]n1` [AMITROLE], the values for the pIC50 with Nicotiana tabacum [1] and in the experiment with Nicotiana tabacum [2] were 4.14 and 4.17, respectively.

These data come from ChEMBL document CHEMBL3045503, “Mode of Action of Herbicides Affecting Carotenogenesis” (J Pestic Sci, 1996).
